Key:
MRCKB = experiment: KINOMEscan; conditions: 50000 nM
Experimental: (§1) Briefly, Kinase-tagged T7 phage strains were grown in parallel in an E. coli host derived from the BL21 strain. E. coli were grown to log-phase and infected with T7 phage from a frozen stock and incubated with shaking at 32°C until lysis (90-150 minutes). The kinases were produced in HEK-293 cells and subsequently tagged with DNA for qPCR detection. Streptavidin-coated magnetic beads were treated with biotinylated small molecule ligands to generate affinity resins for kinase
(§2) inhibitor or DMSO control was performed in polypropylene 384-well plates for 1 hr at room temperature. After wash with PBS buffer containing 0.05% Tween 20, the beads were incubated in elution buffer (PBS containing 0.05 % Tween 20 and 0.5 μM non-biotinylated affinity ligand) for 30 minutes at room temperature. The kinase concentration in the eluates was measured by qPCR.

MET = experiment: KINOMEscan; conditions: 50000 nM
Experimental: KINOMEscan™ selectivity screen
(§3) The assay was perfor med at DiscoveRx Corporation according the methods published previously5. Briefly, Kinase-tagged T7 phage strains were grown in parallel in an E. coli host derived from the BL21 strain. E. coli were grown to log-phase and infected with T7 phage from a frozen stock and incubated with shaking at 32°C until lysis (90-150 minutes). The kinases were produced in HEK-293 cells and subsequently tagged with DNA for qPCR detection. Streptavidin-coated magnetic beads were treated with biotinylated small molecule ligands to generate affinity resins for kinase
as §2

WNK3 = experiment: KINOMEscan; conditions: 50000 nM
Experimental: KINOMEscan™ selectivity screen
as §3, §2

p38-delta = experiment: KINOMEscan; conditions: 50000 nM
Experimental: KINOMEscan™ selectivity screen
as §1, §2

FGFR1 = experiment: KINOMEscan; conditions: 50000 nM
Experimental: KINOMEscan™ selectivity screen
as §3, §2

PKC = experiment: Western blot of PKC phosphorylation; format: cell-based, Mouse; conditions: Neuro 2A cells
Experimental: Neuro 2A cells were seeded in 12-well plates in DMEM containing 5% FBS for 24 hr.
After overnight serum starvation (in 0% FBS DMEM), cells were incubated for 30 min at 37 °C with G7 or LY294002 or Torin 1 (Sigma Aldrich) at various concentrations, or DMSO control. IGF-1 was added to each well at a final concentration of 100 ng/mL. After 30-min incubation cells were washed with cold PBS and lysed with 50 µL lysis buffer containing 1% Triton X-100 and protease/phosphatase inhibitors (Cell Signaling Technology) or RIPA buffer (Santa Cruz Biotech). Samples were electrophoresed in 4–12% Bis-Tris gels (Life Technologies) at 150 V using MOPS SDS running buffer. Proteins were transferred electrophoretically to a PVDF or nitrocellulose membrane. For detection of cleaved […]
caspase 3 a Trans-Blot Turbo Transfer System (Bio-Rad, 25 V for 25 min) with PVDF membrane were used. […]
anti- GAPDH (14C10) antibody (#2118) (all antibodies were from Cell Signaling Technology unless indicated, 1:1000 dilution was used) at 4°C overnight, washed three times with TBS-T, then incubated with peroxidase-conjugated secondary antibody (Sigma-Aldrich) for 1 hr at room temperature. […] Band intensity was quantitated using Kodak 1D imaging analysis software. […]

NEK4 = experiment: KINOMEscan; conditions: 50000 nM
Experimental: KINOMEscan™ selectivity screen
as §3, §2

PKAC-beta = experiment: KINOMEscan; conditions: 50000 nM
Experimental: KINOMEscan™ selectivity screen
as §3, §2

RIPK1 = experiment: KINOMEscan; conditions: 50000 nM
Experimental: KINOMEscan™ selectivity screen
as §3, §2

CSK = experiment: KINOMEscan; conditions: 50000 nM
Experimental: KINOMEscan™ selectivity screen
as §3, §2

JNK2 = experiment: KINOMEscan; conditions: 50000 nM
Experimental: KINOMEscan™ selectivity screen
as §3, §2

FLT3(D835V) = experiment: KINOMEscan; conditions: 50000 nM
Experimental: KINOMEscan™ selectivity screen
as §3, §2

PIKFYVE = experiment: KINOMEscan; conditions: 50000 nM
Experimental: KINOMEscan™ selectivity screen
as §1, §2

PFPK5(P.falciparum) = test system: T1, PFPK5(P.falciparum); experiment: KINOMEscan; format: binding; conditions: 50000 nM
T1 construct: purchased DiscoveRx KINOMEscan

PIP5K1C = experiment: KINOMEscan; conditions: 50000 nM
Experimental: KINOMEscan™ selectivity screen
as §3, §2

MAP4K5 = experiment: KINOMEscan; conditions: 50000 nM
Experimental: KINOMEscan™ selectivity screen
as §3, §2

FLT3(N841I) = experiment: KINOMEscan; conditions: 50000 nM
Experimental: KINOMEscan™ selectivity screen
as §1, §2

CDKL1 = experiment: KINOMEscan; conditions: 50000 nM
Experimental: KINOMEscan™ selectivity screen
as §1, §2

IRAK3 = experiment: KINOMEscan; conditions: 50000 nM
Experimental: KINOMEscan™ selectivity screen
as §1, §2

SgK110 = experiment: KINOMEscan; conditions: 50000 nM
Experimental: KINOMEscan™ selectivity screen
as §3, §2

Q: For `Oc1cc(-c2ccccc2)c2ccccc2n1` [G7, 4-phenylquinolin-2(1H)-one], which “Percent Control” value (MRCKB) is on record?
A: 84%

Q: What about the “Percent Control” value (MET) of the same compound?
A: 73%

Q: And the “Percent Control” value (WNK3)?
A: 98%

Q: What about the “Percent Control” value (p38-delta) of the same compound?
A: 100%

Q: What about the “Percent Control” value (FGFR1) of the same compound?
A: 56%

Q: And the “phosphorylation (activation status) of PKC” value (PKC)?
A: did not alter

Q: And the “Percent Control” value (NEK4)?
A: 95%

Q: And the “Percent Control” value (PKAC-beta)?
A: 86%

Q: And the “Percent Control” value (RIPK1)?
A: 100%

Q: What about the “Percent Control” value (CSK) of the same compound?
A: 76%

Q: And the “Percent Control” value (JNK2)?
A: 68%

Q: What about the “Percent Control” value (FLT3(D835V)) of the same compound?
A: 7.6%

Q: What about the “Percent Control” value (PIKFYVE) of the same compound?
A: 74%

Q: What about the “Percent Control” value (PFPK5(P.falciparum)) of the same compound?
A: 85%

Q: And the “Percent Control” value (PIP5K1C)?
A: 44%

Q: And the “Percent Control” value (MAP4K5)?
A: 100%

Q: And the “Percent Control” value (FLT3(N841I))?
A: 30%

Q: And the “Percent Control” value (CDKL1)?
A: 100%

Q: And the “Percent Control” value (IRAK3)?
A: 74%

Q: And the “Percent Control” value (SgK110)?
A: 100%

From PMC5601486, “Identification of 4-phenylquinolin-2(1H)-one as a specific allosteric inhibitor of Akt” (Scientific Reports, 2017)
